Our source for the IC50 values is article PMC10207986, “Computational high-throughput screening and in vitro approaches identify CB-006-3; A novel PI3K-BRAF^V600E dual targeted inhibitor against melanoma” (Oncology Research, 2022).

Holding throughout (type): biochemical
One experiment deals with T1, BRAF^V600E (B-Raf^V600E) (Homo sapiens, UniProt P15056, V600E).
T1 construct: enzyme of BPS Bioscience B-Raf V600E assay kit
The experiment can be described thus: luminescence kinase assay (Kinase-Glo Max). As to conditions: 500 µM ATP, Raf substrate, 45 min, 30°C. Background: Kinase-Glo measures the ATP left after a reaction by luminescence.

The next experiment addresses T2, PI3KCG (PI3K gamma) (Homo sapiens, UniProt P48736).
T2 construct: gene PIK3CG; enzyme used with Merck Millipore PI3K HTRF kit
Put plainly: HTRF PI3K kinase assay. As to conditions: PIP2 substrate, ATP; 10 min pre-incubation, 30 min, room temperature.

The target in another experiment is T3, PI3KCD (PI3K delta) (Homo sapiens, UniProt O00329).
T3 construct: gene PIK3CD; enzyme used with Merck Millipore PI3K HTRF kit; with Phosphatidylinositol 3-kinase regulatory subunit alpha
T3 sequence (O00329 whole entry): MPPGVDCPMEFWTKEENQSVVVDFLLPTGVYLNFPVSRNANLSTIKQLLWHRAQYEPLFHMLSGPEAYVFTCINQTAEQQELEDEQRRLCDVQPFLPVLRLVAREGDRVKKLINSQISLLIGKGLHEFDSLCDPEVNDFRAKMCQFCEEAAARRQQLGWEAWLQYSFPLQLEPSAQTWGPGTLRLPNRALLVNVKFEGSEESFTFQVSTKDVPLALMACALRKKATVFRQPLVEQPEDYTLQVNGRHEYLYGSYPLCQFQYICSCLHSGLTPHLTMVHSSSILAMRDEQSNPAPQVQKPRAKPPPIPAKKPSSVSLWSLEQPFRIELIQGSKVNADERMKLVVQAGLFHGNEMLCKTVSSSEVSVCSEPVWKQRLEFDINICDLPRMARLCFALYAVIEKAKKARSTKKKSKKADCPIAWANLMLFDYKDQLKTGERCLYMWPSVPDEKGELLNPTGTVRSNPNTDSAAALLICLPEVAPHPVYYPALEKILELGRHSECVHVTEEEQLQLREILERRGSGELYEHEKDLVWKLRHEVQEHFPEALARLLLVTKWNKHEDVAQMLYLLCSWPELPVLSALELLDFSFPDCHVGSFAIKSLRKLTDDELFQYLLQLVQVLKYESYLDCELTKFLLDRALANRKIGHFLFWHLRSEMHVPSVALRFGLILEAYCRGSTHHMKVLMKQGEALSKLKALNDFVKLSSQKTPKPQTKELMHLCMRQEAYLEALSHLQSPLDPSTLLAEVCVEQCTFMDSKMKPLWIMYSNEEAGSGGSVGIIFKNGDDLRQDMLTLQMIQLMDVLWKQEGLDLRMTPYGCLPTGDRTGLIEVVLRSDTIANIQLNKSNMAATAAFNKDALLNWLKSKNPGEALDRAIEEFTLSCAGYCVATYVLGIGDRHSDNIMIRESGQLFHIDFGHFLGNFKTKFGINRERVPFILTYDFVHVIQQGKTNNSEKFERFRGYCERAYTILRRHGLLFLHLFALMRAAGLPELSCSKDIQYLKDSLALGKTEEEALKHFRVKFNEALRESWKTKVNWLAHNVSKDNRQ
T3 sequence (P27986 2-724 partner): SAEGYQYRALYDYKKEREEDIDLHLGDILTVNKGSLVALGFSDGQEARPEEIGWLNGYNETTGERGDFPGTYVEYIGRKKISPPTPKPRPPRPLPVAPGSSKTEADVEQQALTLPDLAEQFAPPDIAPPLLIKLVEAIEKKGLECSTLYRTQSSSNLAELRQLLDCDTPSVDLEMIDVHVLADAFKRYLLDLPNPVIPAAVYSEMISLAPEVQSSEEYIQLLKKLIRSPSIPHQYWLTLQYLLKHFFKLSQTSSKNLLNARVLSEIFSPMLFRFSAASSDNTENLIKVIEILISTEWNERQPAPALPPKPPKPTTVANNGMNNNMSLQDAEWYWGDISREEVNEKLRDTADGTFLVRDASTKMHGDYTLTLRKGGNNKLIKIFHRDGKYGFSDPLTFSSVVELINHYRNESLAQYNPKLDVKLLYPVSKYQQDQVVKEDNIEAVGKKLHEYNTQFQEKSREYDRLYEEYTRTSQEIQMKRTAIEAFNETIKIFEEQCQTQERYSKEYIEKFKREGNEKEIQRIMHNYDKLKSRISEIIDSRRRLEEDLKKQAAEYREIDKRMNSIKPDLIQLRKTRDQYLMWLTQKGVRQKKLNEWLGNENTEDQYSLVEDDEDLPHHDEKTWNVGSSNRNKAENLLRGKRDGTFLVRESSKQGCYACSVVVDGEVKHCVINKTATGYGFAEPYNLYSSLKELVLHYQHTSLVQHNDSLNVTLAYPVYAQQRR
The experiment can be described thus: HTRF PI3K kinase assay. As to conditions: PIP2 substrate, ATP; 10 min pre-incubation, 30 min, room temperature. Background: Time-resolved FRET reads energy transfer from a long-lived donor to a nearby acceptor.

T1 sequence (P15056 2-766 V600E): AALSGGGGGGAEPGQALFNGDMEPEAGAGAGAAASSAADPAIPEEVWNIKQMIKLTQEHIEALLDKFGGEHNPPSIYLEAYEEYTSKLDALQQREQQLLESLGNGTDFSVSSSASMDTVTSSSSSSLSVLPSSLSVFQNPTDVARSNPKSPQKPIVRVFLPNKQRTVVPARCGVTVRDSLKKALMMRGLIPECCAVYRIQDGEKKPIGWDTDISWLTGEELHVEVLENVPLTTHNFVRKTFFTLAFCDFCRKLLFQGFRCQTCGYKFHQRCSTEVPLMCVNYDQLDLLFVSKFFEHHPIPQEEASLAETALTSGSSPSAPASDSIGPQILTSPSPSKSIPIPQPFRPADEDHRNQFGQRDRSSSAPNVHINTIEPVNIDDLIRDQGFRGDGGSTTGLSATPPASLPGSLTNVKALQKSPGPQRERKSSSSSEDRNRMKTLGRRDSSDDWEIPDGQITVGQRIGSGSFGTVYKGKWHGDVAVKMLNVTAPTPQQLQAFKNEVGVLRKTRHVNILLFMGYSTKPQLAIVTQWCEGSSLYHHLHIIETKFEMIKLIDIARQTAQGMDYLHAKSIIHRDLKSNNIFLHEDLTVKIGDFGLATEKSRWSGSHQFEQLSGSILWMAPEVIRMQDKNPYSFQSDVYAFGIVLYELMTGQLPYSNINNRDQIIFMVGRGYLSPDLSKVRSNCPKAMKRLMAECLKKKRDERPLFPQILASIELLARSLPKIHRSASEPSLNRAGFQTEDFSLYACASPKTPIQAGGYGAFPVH
T2 sequence (P48736 whole entry): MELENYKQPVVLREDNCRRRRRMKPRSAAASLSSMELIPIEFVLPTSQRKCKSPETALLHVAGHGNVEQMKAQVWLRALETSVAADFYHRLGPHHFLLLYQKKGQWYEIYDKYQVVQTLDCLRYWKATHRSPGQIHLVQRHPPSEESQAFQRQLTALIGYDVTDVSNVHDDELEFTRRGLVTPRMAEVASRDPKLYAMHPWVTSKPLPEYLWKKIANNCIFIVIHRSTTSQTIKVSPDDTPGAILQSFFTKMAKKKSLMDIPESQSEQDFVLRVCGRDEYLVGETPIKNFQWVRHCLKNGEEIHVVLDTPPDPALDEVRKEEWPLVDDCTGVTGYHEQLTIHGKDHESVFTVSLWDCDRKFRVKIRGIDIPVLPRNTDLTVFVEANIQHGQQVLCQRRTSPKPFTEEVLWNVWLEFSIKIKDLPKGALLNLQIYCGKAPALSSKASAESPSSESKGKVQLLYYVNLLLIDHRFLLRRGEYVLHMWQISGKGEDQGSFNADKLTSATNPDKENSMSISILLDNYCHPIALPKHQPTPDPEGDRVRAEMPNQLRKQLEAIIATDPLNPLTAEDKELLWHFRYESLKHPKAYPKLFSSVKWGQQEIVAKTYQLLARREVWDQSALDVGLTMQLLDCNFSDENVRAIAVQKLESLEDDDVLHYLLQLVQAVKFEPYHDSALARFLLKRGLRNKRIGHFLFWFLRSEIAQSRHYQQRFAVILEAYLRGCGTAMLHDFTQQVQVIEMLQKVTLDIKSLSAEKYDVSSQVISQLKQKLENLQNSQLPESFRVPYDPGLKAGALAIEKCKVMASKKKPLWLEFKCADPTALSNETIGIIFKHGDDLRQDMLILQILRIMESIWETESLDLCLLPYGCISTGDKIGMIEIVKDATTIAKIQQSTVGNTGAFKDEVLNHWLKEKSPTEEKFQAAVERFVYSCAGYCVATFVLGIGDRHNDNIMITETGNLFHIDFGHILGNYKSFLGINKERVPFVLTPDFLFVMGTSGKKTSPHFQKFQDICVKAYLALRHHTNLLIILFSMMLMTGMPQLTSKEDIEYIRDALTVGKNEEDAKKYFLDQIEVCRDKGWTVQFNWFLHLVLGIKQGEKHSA

`Cc1cc(C)c(CC(=O)N2C[C@@H]3CC(=O)NCCN(C)C(=O)c4cccn(c4=O)Cc4cn(nn4)[C@@H]3C2)c(C)c1` (relative stereo) [CB-006-3, rel-(17aS,20aS)-19-(mesitylacetyl)-12-methyl-12,13,14,15,17,17a,18,19,20,20a-decahydro-6,10-methano-1,4-methenopyrrolo[3,4-r] [1,2,3,6,12,15]hexaazacyclononadecine-11,16,21-trione]: the results for the IC50 against BRAF^V600E (B-Raf^V600E), against PI3KCG (PI3K gamma) and on PI3KCD (PI3K delta) were 70.8 nM, 75.8 nM and 160 nM, respectively.
